Results published in patent publication US11339130B1 (Blade Therapeutics, Inc., priority 2016, dated 2022).

How the values were obtained:
Format in all cases: biochemical
Human Calpain 1/NS1 = target: T1, Human Calpain 1/NS1 (Homo sapiens, UniProt P07384); assay: Calpain inhibition continuous fluorescence (FRET) assay, Human Calpain 1/NS1; settings: Column A; read-out: Human Calpain 1/NS1 IC50
T1 sequence (P07384 1-714): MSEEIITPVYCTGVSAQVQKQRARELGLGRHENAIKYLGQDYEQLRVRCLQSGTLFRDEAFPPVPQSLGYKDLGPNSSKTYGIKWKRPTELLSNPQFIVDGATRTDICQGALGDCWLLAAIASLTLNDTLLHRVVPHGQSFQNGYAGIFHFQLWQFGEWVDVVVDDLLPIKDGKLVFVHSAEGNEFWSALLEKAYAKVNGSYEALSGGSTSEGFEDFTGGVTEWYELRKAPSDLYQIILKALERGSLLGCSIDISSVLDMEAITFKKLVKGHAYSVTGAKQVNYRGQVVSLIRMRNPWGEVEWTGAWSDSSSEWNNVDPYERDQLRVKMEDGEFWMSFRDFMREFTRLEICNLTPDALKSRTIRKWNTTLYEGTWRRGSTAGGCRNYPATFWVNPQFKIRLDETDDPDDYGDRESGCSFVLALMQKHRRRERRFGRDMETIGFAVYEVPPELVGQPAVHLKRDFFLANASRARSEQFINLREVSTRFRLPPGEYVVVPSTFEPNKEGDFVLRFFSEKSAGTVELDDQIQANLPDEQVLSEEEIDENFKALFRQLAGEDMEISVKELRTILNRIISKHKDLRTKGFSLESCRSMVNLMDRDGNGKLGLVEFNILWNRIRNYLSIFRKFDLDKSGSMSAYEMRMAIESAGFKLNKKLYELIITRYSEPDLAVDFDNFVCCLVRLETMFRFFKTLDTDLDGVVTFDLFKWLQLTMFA
T1 sequence (P04632 1-268 partner): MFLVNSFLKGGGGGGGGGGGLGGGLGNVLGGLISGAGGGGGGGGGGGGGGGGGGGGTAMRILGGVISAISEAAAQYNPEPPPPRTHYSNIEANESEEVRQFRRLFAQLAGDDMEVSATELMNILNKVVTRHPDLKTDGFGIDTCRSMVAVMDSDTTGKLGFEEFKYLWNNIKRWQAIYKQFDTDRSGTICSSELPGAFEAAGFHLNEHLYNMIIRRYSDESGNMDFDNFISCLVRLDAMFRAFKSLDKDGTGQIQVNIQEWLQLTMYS
Description: (§1) Calpain 1, 2, and 9 activity and inhibition thereof was assessed by means of a continuous fluorescence assay. The SensoLyte 520 Calpain substrate (Anaspec Inc) was optimized for detecting calpain activity. This substrate contains an internally quenched 5-FAM/QXL™ 520 FRET pair. Calpains 1, 2, and 9 cleave the FRET substrate into two separate fragments resulting in an increase of 5-FAM fluorescence that is proportional to calpain activity
(§2) Assays were typically setup in black 384-well plates using automated liquid handling as follows. Calpain assay base buffer typically contains 50 mM Tris, pH 7.5, 100 mM NaCl and 1 mM DTT. Inhibitors were serially diluted in DMSO and used to setup 2× mixtures with calpains in the aforementioned buffer. After incubation at ambient temperature (25C), the reaction was initiated by adding a 2× mix of the fluorescent peptide substrate and CaCl2) (required for in-situ calpain activation) in the same buffer. Reaction progress curve data were typically collected for 10 min using excitation/emission wavelengths of 490 nm/520 nm on SpectraMax i3× or the FLIPR-Tetra plate readers (Molecular Devices Inc). Reaction rates were calculated from progress curve slopes typically over 1-5 min. Dose response curves (rate vs. log inhibitor concentration) were typically fit to a 4-parameter logistic function to extract IC50 values.

Human Calpain 9/NS1 = target: T2, Human Calpain 9/NS1 (Homo sapiens, UniProt O14815); assay: Calpain inhibition continuous fluorescence (FRET) assay, Human Calpain 9/NS1; settings: Column C; read-out: Human Calpain 9/NS1 IC50
T2 sequence (O14815 1-690): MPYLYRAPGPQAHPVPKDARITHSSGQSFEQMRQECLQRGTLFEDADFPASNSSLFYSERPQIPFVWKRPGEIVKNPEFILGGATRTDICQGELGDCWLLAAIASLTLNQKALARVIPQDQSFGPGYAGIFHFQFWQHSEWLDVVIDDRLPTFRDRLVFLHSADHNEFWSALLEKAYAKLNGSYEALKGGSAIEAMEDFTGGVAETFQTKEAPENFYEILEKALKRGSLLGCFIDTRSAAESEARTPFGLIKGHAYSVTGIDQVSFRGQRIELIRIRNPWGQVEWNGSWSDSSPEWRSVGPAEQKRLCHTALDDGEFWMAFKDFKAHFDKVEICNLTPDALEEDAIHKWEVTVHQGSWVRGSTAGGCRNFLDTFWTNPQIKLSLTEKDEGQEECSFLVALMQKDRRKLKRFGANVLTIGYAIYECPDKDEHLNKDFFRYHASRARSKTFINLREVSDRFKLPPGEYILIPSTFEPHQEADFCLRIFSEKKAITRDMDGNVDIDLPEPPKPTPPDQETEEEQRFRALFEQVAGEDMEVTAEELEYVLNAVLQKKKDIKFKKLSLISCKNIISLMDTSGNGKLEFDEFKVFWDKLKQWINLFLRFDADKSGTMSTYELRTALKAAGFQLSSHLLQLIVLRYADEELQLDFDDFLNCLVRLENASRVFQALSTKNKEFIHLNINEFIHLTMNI
T2 sequence (P04632 1-268 partner): T1 sequence (P04632 1-268 partner)
Description: as §1, §2

Human Calpain 2/NS1 = target: T3, Human Calpain 2/NS1 (Homo sapiens, UniProt P17655); assay: Calpain inhibition continuous fluorescence (FRET) assay, Human Calpain 2/NS1; settings: Column B; read-out: Human Calpain 2/NS1 IC50
T3 sequence (P17655 1-700): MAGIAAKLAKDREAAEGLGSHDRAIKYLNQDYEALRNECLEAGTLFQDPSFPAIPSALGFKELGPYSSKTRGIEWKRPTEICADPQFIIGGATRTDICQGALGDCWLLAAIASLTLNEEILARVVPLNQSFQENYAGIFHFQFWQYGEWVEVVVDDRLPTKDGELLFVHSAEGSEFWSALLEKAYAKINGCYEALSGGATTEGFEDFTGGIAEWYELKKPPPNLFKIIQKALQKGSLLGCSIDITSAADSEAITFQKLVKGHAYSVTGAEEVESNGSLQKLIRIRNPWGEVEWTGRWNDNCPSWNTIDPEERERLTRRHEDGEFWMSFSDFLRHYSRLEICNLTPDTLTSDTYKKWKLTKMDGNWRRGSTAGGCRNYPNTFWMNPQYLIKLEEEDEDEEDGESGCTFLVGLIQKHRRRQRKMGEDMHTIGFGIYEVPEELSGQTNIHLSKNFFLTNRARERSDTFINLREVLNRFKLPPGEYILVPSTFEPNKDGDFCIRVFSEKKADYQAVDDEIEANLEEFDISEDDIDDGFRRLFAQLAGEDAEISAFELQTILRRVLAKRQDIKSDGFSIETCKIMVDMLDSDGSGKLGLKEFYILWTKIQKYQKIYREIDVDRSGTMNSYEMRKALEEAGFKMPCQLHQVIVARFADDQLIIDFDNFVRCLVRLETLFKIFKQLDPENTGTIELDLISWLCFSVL
T3 sequence (P04632 1-268 partner): T1 sequence (P04632 1-268 partner)
Description: as §1, §2

Row | SMILES | IC50 (Human Calpain 1/NS1) [µM] | IC50 (Human Calpain 9/NS1) [µM] | IC50 (Human Calpain 2/NS1) [µM]
1 | Cc1cc(C(=O)N[C@@H](Cc2ccccc2)C(=O)C(N)=O)n(-c2ncccn2)n1 (single isomer, unassigned) [Compound 36] | > 10 | 3 to 10 | 3 to 10
2 | O=C[C@H](Cc1ccccc1)NC(=O)c1cncn1-c1ccccc1 [Compound 1, (S)—N-(1-oxo-3-phenylpropan-2-yl)-1-phenyl-1H-imidazole-5-carboxamide] | < 3 | < 3 | < 3
3 | O=C[C@H](Cc1ccccc1)NC(=O)[C@@H]1CCCN1c1nc2ccccc2s1 [Compound 3, (S)-1-(benzo[D]thiazol-2-yl)-N—((S)-1-oxo-3-phenylpropan-2-yl)pyrrolidine-2-carboxamide] | < 3 | < 3 | < 3
4 | O=C[C@H](Cc1ccccc1)NC(=O)[C@@H]1CCCN1c1nc2ccccc2o1 [Compound 4, (S)-1-(benzo[D]oxazol-2-yl)-N—((S)-1-oxo-3-phenylpropan-2-yl)pyrrolidine-2-carboxamide] | < 3 | < 3 | < 3
5 | Cc1cc(C(=O)N[C@H](C=O)Cc2ccccc2)nn1-c1ccccc1 [Compound 5] | > 10 | 3 to 10 | 3 to 10
6 | NC(=O)C(=O)[C@H](Cc1ccccc1)NC(=O)c1cncn1-c1ccccc1 [Compound 7, (S)—N-(4-amino-3,4-dioxo-1-phenylbutan-2-yl)-1-phenyl-1H-imidazole-5-carboxamide] | < 3 | < 3 | < 3
7 | Cc1cc(C(=O)N[C@H](C=O)Cc2ccccc2)n(-c2ccccc2)n1 [Compound 8, (S)-3-methyl-N-(1-oxo-3-phenylpropan-2-yl)-1-phenyl-1H-pyrazole-5-Carboxamide] | < 3 | < 3 | < 3
8 | NC(=O)C(=O)[C@H](Cc1ccccc1)NC(=O)c1ccnn1-c1ccccc1 [Compound 10, (S)—N-(4-amino-3,4-dioxo-1-phenylbutan-2-yl)-1-phenyl-1H-pyrazole-5-carboxamide] | < 3 | < 3 | < 3
9 | NC(=O)C(=O)[C@H](Cc1ccccc1)NC(=O)c1csnc1-c1ccccc1 [Compound 11, (S)—N-(4-amino-3,4-dioxo-1-phenylbutan-2-yl)-3-phenylisothiazole-4-carboxamide] | < 3 | < 3 | < 3
10 | NC(=O)C(=O)[C@H](Cc1ccccc1)NC(=O)c1scnc1-c1ccccc1 [Compound 18, (S)—N-(4-amino-3,4-dioxo-1-phenylbutan-2-yl)-4-phenyl thiazole-5-carboxamide] | < 3 | < 3 | < 3
11 | Cc1noc(-c2ccc3c(c2)OCO3)c1C(=O)N[C@@H](Cc1ccccc1)C(=O)C(N)=O [Compound 20, (S)—N-(4-amino-3,4-dioxo-1-phenylbutan-2-yl)-5-(benzo[D][1,3]dioxol-5-yl)-3-methylisoxazole-4-carboxamide] | < 3 | < 3 | < 3
12 | O=C[C@H](Cc1ccccc1)NC(=O)c1scnc1-n1cc(-c2ccccc2)cn1 [Compound 21, (S)—N-(1-oxo-3-phenylpropan-2-yl)-4-(4-phenyl-1H-pyrazol-1-yl)thiazole-5-carboxamide] | < 3 | < 3 | < 3
13 | O=C[C@H](Cc1ccccc1)NC(=O)c1scnc1-n1ncc2ccccc21 [Compound 22, (S)-4-(1H-indazol-1-yl)-N-(1-oxo-3-phenylpropan-2-yl)thiazole-5-carboxamide] | < 3 | < 3 | < 3
14 | O=C[C@H](Cc1ccccc1)NC(=O)c1cncn1-c1nc2ccccc2s1 [Compound 29, (S)-1-(benzo[d]thiazol-2-yl)-N-(1-oxo-3-phenylpropan-2-yl)-1H-imidazole-5-carboxamide] | < 3 | < 3 | < 3
15 | O=C[C@H](Cc1ccccc1)NC(=O)c1cncn1-c1ccccn1 [Compound 31, (S)—N-(1-oxo-3-phenylpropan-2-yl)-1-(pyridin-2-yl)-1H-imidazole-5-carboxamide] | < 3 | < 3 | < 3
16 | O=C[C@H](Cc1ccccc1)NC(=O)c1cncn1-c1ccn(-c2ccccc2)n1 [Compound 34, (S)—N-(1-oxo-3-phenylpropan-2-yl)-1-(1-phenyl-1H-pyrazol-3-yl)-1H-imidazole-5-carboxamide] | < 3 | < 3 | < 3
17 | Cc1noc(-c2ccccc2)c1C(=O)N[C@@H](CC(C)C)C(=O)C(N)=O [Compound 35, (S)—N-(1-amino-5-methyl-1,2-dioxohexan-3-yl)-3-methyl-5-phenylisoxazole-4-carboxamide] | < 3 | < 3 | < 3
18 | NC(=O)C(=O)[C@H](Cc1ccccc1)NC(=O)c1scnc1-n1cc2ccccc2n1 [Compound 37, (S)—N-(4-amino-3,4-dioxo-1-phenylbutan-2-yl)-4-(2H-indazol-2-yl)thiazole-5-carboxamide] | < 3 | < 3 | < 3
19 | Cc1cc(C(=O)N[C@@H](Cc2ccccc2)C(=O)C(N)=O)n(-c2cccc3ccccc23)n1 [Compound 38, (S)—N-(4-amino-3,4-dioxo-1-phenylbutan-2-yl)-3-methyl-1-(naphthalen-1-yl)-1H-pyrazole-5-carboxamide] | < 3 | < 3 | < 3
